Results on 13 compounds are retold here after ChEMBL document CHEMBL4417631, “Oral peptide inhibitors of interleukin-23 receptor and their use to treat inflammatory bowel diseases” (2017).

Molecules are shown by their SMILES. A value given as a limit tells only on which side of the number the result lay.

A word on the half-life: it is the time needed for the level to fall by half in the phase considered. As a reminder, the IC50 is the concentration at which inhibition is half-maximal.

Series [1] can be described thus: Half life in simulated gastric fluid at 20 uM by LC-MS/MS analysis. The series is classed as ADME.
Series [2] in a line: Half life in simulated intestinal fluid at 20 uM by LC-MS/MS analysis. It counts as ADME.
In series [3] the target is T1, Interleukin-23 receptor (Homo sapiens, UniProt Q5VWK5).
T1 sequence (Q5VWK5 whole entry): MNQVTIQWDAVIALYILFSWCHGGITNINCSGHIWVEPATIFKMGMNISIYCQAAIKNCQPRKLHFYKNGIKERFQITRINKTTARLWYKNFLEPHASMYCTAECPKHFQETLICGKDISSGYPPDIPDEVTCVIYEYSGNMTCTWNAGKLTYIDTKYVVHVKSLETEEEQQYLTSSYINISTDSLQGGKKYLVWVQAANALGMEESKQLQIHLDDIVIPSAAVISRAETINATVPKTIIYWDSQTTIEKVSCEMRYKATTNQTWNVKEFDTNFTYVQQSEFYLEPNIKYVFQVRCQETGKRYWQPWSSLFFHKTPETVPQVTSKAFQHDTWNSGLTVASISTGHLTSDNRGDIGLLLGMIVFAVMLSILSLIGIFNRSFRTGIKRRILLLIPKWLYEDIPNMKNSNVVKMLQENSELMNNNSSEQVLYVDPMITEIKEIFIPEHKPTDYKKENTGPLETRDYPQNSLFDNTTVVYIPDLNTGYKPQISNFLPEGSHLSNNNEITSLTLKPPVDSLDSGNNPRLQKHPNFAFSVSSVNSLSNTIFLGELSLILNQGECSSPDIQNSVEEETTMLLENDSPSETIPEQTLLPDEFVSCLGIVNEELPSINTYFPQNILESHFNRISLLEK
Nature of the series: Inhibition of interleukin-23 receptor in human DB cells assessed as reduction in IL-23-stimulated STAT3 phosphorylation incubated for 30 mins by HTRF assay. The series is classed as cell-based. A general note: In TR-FRET formats the signal depends on donor and acceptor labels being close together.

Series [4] is described as follows: Inhibition of interleukin-23 binding to rat interleukin-23 receptor incubated for 2 hrs by competitive binding ELISA. A general note: ELISA stands for enzyme-linked immunosorbent assay.
The target of series [5] is T1, Interleukin-23 receptor. Put plainly: Inhibition of interleukin-23 binding to human interleukin-23 receptor incubated for 2 hrs by competitive binding ELISA.

As for `CC(=O)NCCCC[C@H](NC(=O)C1(NC(=O)[C@H](Cc2ccc3ccccc3c2)NC(=O)[C@H](Cc2ccc(C(N)=O)cc2)NC(=O)[C@@H](NC(=O)[C@H](CCC(N)=O)NC(=O)[C@H](Cc2c[nH]c3ccccc23)NC(=O)[C@@H](NC(=O)[C@H](CC(N)=O)NC(=O)[C@@H](NC(C)=O)C(C)(C)S)[C@@H](C)O)C(C)(C)S)CCCCC1)C(=O)N[C@@H](CC(N)=O)C(=O)N[C@@H](CC(N)=O)C(N)=O`, the half-life at 20 µM in series [1] and in series [2] was above 6 h throughout.

Regarding `CC(=O)NCCCC[C@H](NC(=O)C(C)(C)NC(=O)[C@H](Cc1ccc2ccccc2c1)NC(=O)[C@H](Cc1ccc(OCCN)cc1)NC(=O)[C@@H](NC(=O)[C@H](CCC(N)=O)NC(=O)[C@H](Cc1c[nH]c2ccccc12)NC(=O)[C@@H](NC(=O)[C@H](CC(N)=O)NC(=O)[C@@H](NC(=O)[C@@H](Cc1ccccc1)NC(C)=O)C(C)(C)S)[C@@H](C)O)C(C)(C)S)C(=O)N[C@@H](CC(N)=O)C(=O)N[C@@H](CC(N)=O)C(N)=O`, the half-life at 20 µM in series [1] and in series [2] was above 6 h throughout.

Turning to `CC(=O)NCCCC[C@H](NC(=O)C(C)(C)NC(=O)[C@H](Cc1ccc2ccccc2c1)NC(=O)[C@H](Cc1ccc(OCCN)cc1)NC(=O)[C@@H](NC(=O)[C@H](CCC(N)=O)NC(=O)[C@H](Cc1c[nH]c2ccccc12)NC(=O)[C@@H](NC(=O)[C@H](CC(N)=O)NC(=O)[C@@H](NC(=O)[C@@H](Cc1ccccc1)NC(C)=O)C(C)(C)S)[C@@H](C)O)C(C)(C)S)C(=O)N[C@@H](CC(N)=O)C(=O)NCCC(N)=O`, the figures for the half-life at 20 µM in series [1] and in series [2] were 3 to 6 h and above 6 h, respectively.

Take `COc1ccc(C[C@H](NC(=O)[C@@H](NC(=O)[C@H](CCC(N)=O)NC(=O)[C@H](Cc2c[nH]c3ccccc23)NC(=O)[C@@H](NC(=O)[C@H](CC(N)=O)NC(=O)[C@@H](NC(C)=O)C(C)(C)S)[C@@H](C)O)C(C)(C)S)C(=O)N[C@@H](Cc2ccc3ccccc3c2)C(=O)N[C@@](C)(CC(C)C)C(=O)N[C@@H](CCCCNC(C)=O)C(=O)N[C@@H](CC(N)=O)C(=O)N[C@@H](CC(N)=O)C(N)=O)cc1`: the half-life at 20 µM in series [1] and in series [2] was above 6 h in each case.

Regarding `CC(=O)NCCCC[C@H](NC(=O)C1(NC(=O)[C@H](Cc2ccc3ccccc3c2)NC(=O)[C@H](Cc2ccc(C(N)=O)cc2)NC(=O)[C@@H](NC(=O)[C@H](CCC(N)=O)NC(=O)[C@H](Cc2c[nH]c3ccccc23)NC(=O)[C@@H](NC(=O)[C@H](CC(N)=O)NC(=O)[C@@H](NC(C)=O)C(C)(C)S)[C@@H](C)O)C(C)(C)S)CCCC1)C(=O)N[C@@H](CC(N)=O)C(=O)N[C@@H](CC(N)=O)C(N)=O`, the half-life at 20 µM in series [1] and in series [2] was above 6 h throughout.

On to `CC(=O)NCCCC[C@H](NC(=O)[C@](C)(CC(C)C)NC(=O)[C@H](Cc1ccc2ccccc2c1)NC(=O)[C@H](Cc1ccc(C(N)=O)cc1)NC(=O)[C@@H](NC(=O)[C@H](CCC(N)=O)NC(=O)[C@H](Cc1c[nH]c2ccccc12)NC(=O)[C@@H](NC(=O)[C@H](CC(N)=O)NC(=O)[C@@H](NC(C)=O)C(C)(C)S)[C@@H](C)O)C(C)(C)S)C(=O)N[C@@H](CC(N)=O)C(=O)N[C@@H](CC(N)=O)C(N)=O`, for which the half-life at 20 µM in series [1] and in series [2] was above 6 h throughout.

As for `CC(=O)N[C@H](C(=O)N[C@@H](CCC(N)=O)C(=O)N[C@H](C(=O)N[C@@H](Cc1c[nH]c2ccccc12)C(=O)N[C@@H](CCC(N)=O)C(=O)N[C@H](C(=O)N[C@@H](Cc1ccc(O)cc1)C(=O)N[C@@H](Cc1c[nH]c2ccccc12)C(=O)N[C@@](C)(CCCN)C(=O)N[C@@H](CCC(=O)O)C(=O)N[C@@H](CC(N)=O)C(=O)NCC(N)=O)C(C)(C)S)[C@@H](C)O)C(C)(C)S`, the values for the IC50 (at Interleukin-23 receptor [3]; in series [4]; at Interleukin-23 receptor [5]) were 25 to 100 nM, 100 to 1000 nM and 100 to 1000 nM, respectively. In addition, in series [2], the half-life at 20 µM was 3 to 6 h.

Regarding `CC(=O)N[C@H](C(=O)N[C@@H](CCC(N)=O)C(=O)N[C@H](C(=O)N[C@@H](Cc1c[nH]c2ccccc12)C(=O)N[C@@H](CCC(N)=O)C(=O)N[C@H](C(=O)N[C@@H](Cc1ccc(O)cc1)C(=O)N[C@@H](Cc1cccc2ccccc12)C(=O)N[C@@](C)(CCCN)C(=O)N[C@@H](CCC(=O)O)C(=O)N[C@@H](CC(N)=O)C(=O)NCC(N)=O)C(C)(C)S)[C@@H](C)O)C(C)(C)S`, the values for the IC50 (on Interleukin-23 receptor [3]; in series [4]; at Interleukin-23 receptor [5]) were 25 to 100 nM, 100 to 1000 nM and 100 to 1000 nM, respectively. In series [2], this compound yielded a half-life at 20 µM of 3 to 6 h.

Consider `CC(=O)NCCCC[C@H](NC(=O)[C@H](CCC(C)C)NC(=O)[C@H](Cc1ccc2ccccc2c1)NC(=O)[C@H](Cc1ccc(OCCN)cc1)NC(=O)[C@@H]1CSCC[C@H](NC(C)=O)C(=O)N[C@@H](CCC(N)=O)C(=O)N[C@@H]([C@@H](C)O)C(=O)N[C@@H](Cc2c[nH]c3ccccc23)C(=O)N[C@@H](CCC(N)=O)C(=O)N1)C(=O)N[C@@H](CC(N)=O)C(=O)NCCC(N)=O`, for which the IC50 (on Interleukin-23 receptor [3]; in series [4]; on Interleukin-23 receptor [5]) was below 10 nM each time. For the same compound, in series [2], the half-life at 20 µM was below 1 h.

On to `CC(=O)NCCCC[C@H](NC(=O)C1(NC(=O)[C@H](Cc2ccc3ccccc3c2)NC(=O)[C@H](Cc2ccc(C(N)=O)cc2)NC(=O)[C@@H](NC(=O)[C@H](CCC(N)=O)NC(=O)[C@H](Cc2c[nH]c3ccccc23)NC(=O)[C@@H](NC(=O)[C@H](CC(N)=O)NC(=O)[C@@H](NC(C)=O)C(C)(C)S)[C@@H](C)O)C(C)(C)S)CCOCC1)C(=O)N[C@@H](CC(N)=O)C(=O)N[C@@H](CC(N)=O)C(N)=O`, for which the half-life at 20 µM in series [1] was 3 to 6 h; in series [2], above 6 h.

In the case of `CC(=O)N[C@@H](CCCNC(=N)N)C(=O)N[C@H]1CCSC[C@@H](C(=O)N[C@@H](Cc2ccc(OCCN)cc2)C(=O)N[C@@H](Cc2ccc3ccccc3c2)C(=O)N[C@@](C)(CCCCN)C(=O)N[C@@H](CCC(=O)O)C(=O)N[C@@H](CC(N)=O)C(=O)N[C@@H](CC(N)=O)C(N)=O)NC(=O)[C@H](CCC(N)=O)NC(=O)[C@H](Cc2c[nH]c3ccccc23)NC(=O)[C@H]([C@@H](C)O)NC(=O)[C@H](CCC(N)=O)NC1=O`, the half-life at 20 µM in series [1] was 2 to 3 h; in series [2] it was below 1 h.

For `CC(=O)N[C@H]1CCSC[C@@H](C(=O)N[C@@H](Cc2ccc(O)cc2)C(=O)N[C@@H](Cc2c[nH]c3ccccc23)C(=O)N[C@@H](CCCNC(=N)N)C(=O)N[C@@H](CCC(=O)O)C(=O)N[C@@H](CC(N)=O)C(=O)NCC(=O)NCCOCC(=O)N[C@H](CCCCN)C(N)=O)NC(=O)[C@H](CCC(N)=O)NC(=O)[C@H](Cc2c[nH]c3ccccc23)NC(=O)[C@H]([C@@H](C)O)NC(=O)[C@H](CCC(N)=O)NC1=O`, the IC50 is 25 to 100 nM on Interleukin-23 receptor [3], 100 to 1000 nM in series [4] and 100 to 1000 nM on Interleukin-23 receptor [5]. In addition, the half-life at 20 µM in series [2] is below 1 h.

Consider `CC(=O)NCCCC[C@H](NC(=O)[C@](C)(CCCN)NC(=O)[C@H](Cc1c[nH]c2ccccc12)NC(=O)[C@H](Cc1ccc(O)cc1)NC(=O)[C@@H]1CSCC[C@H](NC(C)=O)C(=O)N[C@@H](CCC(N)=O)C(=O)N[C@@H]([C@@H](C)O)C(=O)N[C@@H](Cc2c[nH]c3ccccc23)C(=O)N[C@@H](CCC(N)=O)C(=O)N1)C(=O)N[C@@H](CC(N)=O)C(=O)NCC(N)=O`, for which the IC50 lay within 10 to 25 nM at Interleukin-23 receptor [3], 25 to 100 nM in series [4] and 25 to 100 nM on Interleukin-23 receptor [5]. In series [2], this compound yielded a half-life at 20 µM of 3 to 6 h.
